Source: paper PMC11796312, “Multifunctional, Fluorene‐Based Modulator of Cholinergic and GABAergic Neurotransmission as a Novel Drug Candidate for Palliative Treatment of Alzheimer's Disease” (Angewandte Chemie (International Ed. in English), 2024)
“Also recorded” adds a separate entry of the source.

Assays:
human CYP2D6 = target: T1, human CYP2D6 (Homo sapiens, UniProt P10635); experiment: Inhibition of human CYP450 isoforms (Vivid kits); format: in vitro ADME; details: recombinant CYP2D6, 10 min
T1 construct: purchased Thermo Fisher Scientific
Experimental: nonlinear regression analysis using GraphPad Prism 9.0 software. All values are expressed as […]
Table S10. The viability of cells. neurotoxicity immuntoxicity
The results (viability values) are provided as a percentage of live cells with respect to DMSO (control sample)
Table S11. The viability of cells. […]
Inhibition of human CYP450 isoforms
The inhibitory potential of compound 6 toward human CYP1A2, CYP2C9, CYP2D6, and CYP3A4 enzymes was assessed using Vivid® CYP450 Screening Kits (Thermo Fisher Scientific, Waltham, MA, USA). A six -point concentration gradient of compound 6 was prepared in reaction buffer and pipetted onto a black 96 -well plate (Brand, Wertheim Germany) and then a mixture of the respective recombinant CYP isoenzyme and the NADPH regeneration system was added, following the manufacturer’s instructions. The DMSO concentration was maintained at 0.5% in all reaction v ariants including controls. […]
adding NADP+ and the respective CYP isoenzyme substrate. After a further 10-minute incubation at 37°C, the formation of the reaction product was measured as fluorescence using a SPARK microplate reader (TECAN, Männedorf, Switzerland). The half-maximal inhibitory concentration (IC50) values were calculated by fitting the data to sigmoidal Hill curves using GraphPad Prism version 10.1.2. […]

ICR-CD1 mice = experiment: Dose safety verification after oral (i.g.) administration; format: in vivo; details: 10 mg/kg i.g.
Experimental: phosphatase (ALP), amylase, and lactate dehydrogenase (LDH) were measured in the accredited biochemical laboratory of the Department of Clinical Biochemistry and Diagnostics, University Hospital, Hradec Kralove, Czech Republic. Statistical data analysis was performed through IBM SPSS Statistics version 26 (IBM, Armonk, NY, USA) using the Kolmogorov-Smirnov and Shapiro-Wilk tests to test data normality. Due to normally distributed data, the Student´s t-test was used to assess the differences compared with the control group (p ≤ 0.05).
Samples of the liver and kidney were used for standard histopathological examination. Organs were fixed with 10% neutral buffered formalin (Bamed s.r.o., Ceske Budejovice, Czech Republic), histologically processed, and stained with hematoxylin and eosin (both Merck) according to Pejchal et al.[41] The histopathological changes were evaluated using a BX-51 microscope (Olympus, Tokyo, Japan).
Dose safety verification after oral administration
Mice were randomly assigned to the experimental groups of two males and two females per one selected dose (10 mg/kg) of 6 to verify its safety. 6 was administered by a probe (i.g., 0.1 mL/10 g of animal weight; 1% Tween 80). Treated animals were intensively observed for signs of toxicity; then, the animals were subjected to macroscopic examination. The blood was collected for biochemical analysis of glucose, urea, and creatinine concentration and the activity of alanine transaminase (ALT), aspartate transaminase (AST), gamma-glutamyl transferase (GGT), alkaline phosphatase (ALP), amylase, and creatine kinase (CK). Selected organs (terminal esophagus, stomach, duodenum, pancreas, kidney, and liver) were collected for histopathologic examination. […]

[1] = tested on: mouse microglial cells SIM-A9; experiment: MTT cell viability assay, SIM-A9; format: cell-based; details: Mus musculus, SIM-A9, 24 h; read-out: IC50 (MTT) ± SEM
Excerpt: (§1) Human neuroblastoma cells SH-SY5Y and mouse microglial cells SIM-A9 were used to evaluate cell viability, intracellular RONS, and malondialdehyde (MDA; CAS No. 542–78-9).
(§2) SH-SY5y cells were cultivated in Dulbecco's modified Eagle's medium (DMEM; Biosera, Nuaille, France) supplemented with 10% fetal bovine serum (Biosera) and 1% penicillin-streptomycin antibiotic solution (Sigma-Aldrich, St. Louis, MO, USA). The culture medium for SIM-A9 cells was further supplemented with donor horse serum (Biosera). The cells were incubated at 37 °C in a CO2 incubator (BINDER CO2 incubator CB 160, Tuttlingen, Germany) and routinely passaged by trypsinization at 75 –85% confluence.
(§3) Colorimetric Cell Viability Assay
(§4) The toxicological indices IC 50 used in the present study were measured utilizing 3-(4,5-dimethylthiazol-2-yl)-2,5-diphenyl-tetrazolium bromide (MTT) reduction assay after (1 picture or pasted object on this page, not shown here)
(§5) 24 h incubation with tested compounds. […]
(§6) incubation, the cultivation medium containing serially diluted substances was aspirated and replaced with a fresh medium containing MTT at a concentration of 0.5 mg/mL and subsequently incubated at 37 °C for 1 h. […] Cell viability was assessed spectrophotometrically by the amount of formazan produced. Absorbance was measured at 570 nm with 650 nm reference wavelength on Spark (Tecan Group Ltd, Switzerland). […]

[2] = tested on: Human neuroblastoma cells SH-SY5Y; experiment: MTT cell viability assay, SH-SY5Y; format: cell-based; details: Homo sapiens, 24 h, read-out: IC50 (MTT) ± SEM
Excerpt: as §1, §2, §3, §4, §5, §6

T1 sequence (P10635 whole entry, canonical isoform): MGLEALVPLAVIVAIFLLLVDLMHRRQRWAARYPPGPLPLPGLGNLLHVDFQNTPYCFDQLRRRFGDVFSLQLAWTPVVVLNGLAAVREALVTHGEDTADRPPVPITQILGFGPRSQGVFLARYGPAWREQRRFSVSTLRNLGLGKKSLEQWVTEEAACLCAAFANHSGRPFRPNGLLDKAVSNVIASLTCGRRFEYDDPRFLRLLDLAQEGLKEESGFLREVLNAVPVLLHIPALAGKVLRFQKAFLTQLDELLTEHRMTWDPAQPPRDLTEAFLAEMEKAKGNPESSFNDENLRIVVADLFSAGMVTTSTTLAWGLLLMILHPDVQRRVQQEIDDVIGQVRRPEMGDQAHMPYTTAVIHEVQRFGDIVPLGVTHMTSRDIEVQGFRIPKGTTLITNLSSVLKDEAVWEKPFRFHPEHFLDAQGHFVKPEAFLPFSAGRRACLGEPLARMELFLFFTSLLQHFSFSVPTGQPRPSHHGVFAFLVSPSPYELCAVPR

## O[C@H](CNCC1CC1)[C@H](Cc1ccccc1)NC1c2ccccc2-c2ccccc21 [Compound 6]
Human CYP2D6
  CYP2D6 inhibition: CYP2D6 inhibitor
ICR-CD1 mice
  Necropsy: no pathology of internal organs
  signs of toxicity: no signs of poisoning occurred; also recorded: no signs of toxicity occurred
ICR-CD1 mice; 48 h
  ALP, plasma: 61.2 ± 6.2 U/L
  ALT, plasma: 30.0 ± 1.6 U/L
  AST, plasma: 51.3 ± 7.0 U/L
  Amylase, plasma: 2630 ± 110 U/L
  CK, plasma: 123 ± 25 U/L
  Glucose, plasma: 205 ± 16 mg/dL
  Urea, plasma: 38.6 ± 2.5 mg/dL
  blood biochemistry vs control: no significant changes; also recorded: lack of significant changes in blood biochemistry
ICR-CD1 mice; liver, kidney, esophagus, stomach, duodenum, pancreas
  histopathological examinations: no tissue damage
[1]
  IC50: 6.46 ± 0.09 µM
[2]
  IC50: 3.38 ± 0.04 µM
